Read-outs that look alike come from different tables or passages of the source.
Experiments:
[1] = tested on: MCF-7 (breast adenocarcinoma); experiment: SRB (sulforhodamine B) viability assay, MCF-7; type: cell-based, human; conditions: for IC50: SRB assay
Experimental: (§1) The cytotoxicity of the complexes C1–C5 was estimated by examining cell viability using the sulforhodamine B assay. […] However, due to the very poor solubility of the most polar complex C5 in acetone, its initial solution had to be prepared in polar N,N-dimethylacetamide (DMA) (see Section 3.7). Cisplatin was used as the reference drug. The results are presented as IC50 (50% inhibitory concentration), i.e., concentrations that reduce cell survival by 50%. The test was conducted on three cancer cell lines and one normal healthy cell line, namely, breast adenocarcinoma (MCF-7), ovarian adenocarcinoma (ES-2), lung adenocarcinoma (A549), and murine embryonic fibroblast (BALB/3T3).
(§2) Three solid tumor cell lines were used in this study: MCF-7 (breast adenocarcinoma), ES-2 (ovarian adenocarcinoma), and A549 (lung adenocarcinoma). The BALB/3T3 (mouse embryonic fibroblast) cell line was used as a comparative nonpathological tissue. All cell lines were purchased from the American Type Culture Collection (ATCC, Rockville, MD, USA). The preparation of cell cultures for cytotoxicity experiments is described in detail in the following article.
(§3) The initial solutions for subsequent dilutions in biological medium were prepared in a similar manner as described previously. […] The complex C5 was dissolved in the dimethylacetamide (DMA). All the initial solutions were prepared ex tempore and then were added to the culture medium 1:9 (v/v) to obtain a stock solution of 1 mg/mL.
(§4) The test was prepared and performed in the same manner as detailed in the following cited works.

[2] = tested on: ES-2 (ovarian adenocarcinoma); experiment: SRB (sulforhodamine B) viability assay, ES-2; type: cell-based, human
Experimental: as §1, §2, §3, §4

[3] = tested on: BALB/3T3 (mouse embryonic fibroblast); experiment: SRB (sulforhodamine B) viability assay, normal cells BALB/3T3; type: cell-based; conditions: normoxia, read-out: IC50 ± SD, Normal Cells BALB/3T3, Normoxia
Experimental: as §1, §2, §3, §4

[4] = TLC Rf as a measure of relative lipophilicity; type: physicochemical; conditions: silica gel TLC Al foils
[5] = TLC Rf as a measure of relative lipophilicity; type: physicochemical; conditions: silica gel TLC Al foils; remark: listed apart in the source
Experimental: Measurement of the melting points (m.p.) of the obtained compounds was performed with the Büchi M560 melting point device (BÜCHI Labortechnik AG, CH-9230 Flawil/SG, Flawil, Switzerland) and was uncorrected. The ESI-MS (electrospray ionization mass spectroscopy) spectra were recorded with the compactTM Bruker Daltonics Electrospray Ionization Quadrupole Time-of-Flight (ESI-Q-TOF) spectrometer (Bruker Daltonics GmbH, Bremen, Germany). The ESI-MS measurements for new compounds were performed in both positive- and negative-ion mode in LC-MS-grade using LC-MS grade methanol as a solvent. ESI-MS spectral analysis and the simulation of the theoretical monoisotopic mass of detected ions were performed using Bruker Compass Data Analysis 4.2 software (Bruker Daltonics GmbH, Bremen, Germany). All ^1H and ^13C-NMR spectra were recorded on the following instruments: Bruker NMR AVANCE III™ 600 MHz spectrometer with Ascend™ technology magnet with a quadruple resonance NMR ‘inverse’ cryoprobe (Bruker Corporation, Billerica, MA, USA) and/or Bruker ARX-300 (300 MHz) spectrometer (Bruker Analytische Messtechnik GmbH, Rheinstetten, Germany). The NMR measurements of samples of the compounds were carried out at room temperature (20–25 °C) using 5 mm tubes in deuterated acetone-d6. NMR chemical shifts were referenced to the solvent signal, i.e., for ^1H-NMR: δ (quintet of residual acetone-d6) = 2.05 ppm and for ^13C-NMR: δ (septet of acetone-d6) = 29.84 ppm. The Nicolet iS50 FT-IR spectrophotometer (Thermo Fisher Scientific Inc., Waltham, MA, USA) was used to record the Attenuated Total Reflectance IR (ATR-FT-IR) spectra (at MIR range 4000–450 cm^−1). Recording of spectra was performed on the diamond crystal surface (32 scans, resolution: 1 cm^−1, measurement temperature: 20–25 °C) with ATR intensity correction in the Laboratory of Elemental Analysis and Structural Research, Faculty of Pharmacy, Wroclaw Medical University. A Fourier transform, Bruker VERTEX 70V vacuum spectrometer equipped with an air-cooled DTGS detector was used to obtain the Far-IR (far-infrared) spectra (below 500 cm^−1) of the Pt(II) complexes. The spectra measurements were conducted with the ATR accessory, such as a diamond ATR crystal, in the resolution of 1 cm^−1 with 64 scans in the Laboratory of Vibrational Spectroscopy of the Faculty of Chemistry at Wrocław University of Science and Technology. No ATR intensity correction was applied to Far-IR spectra. Omnic 9.3.30 and Omnic Specta 2.0 software (Thermo Fisher Scientific Inc.) was used to process and analyze spectra. A double beam U-2800 Spectrophotometer (Hitachi—Science & Technology, Tokyo, Japan) was used to record UV spectra of Pt-complexes (C1 and C2) and reaction rate measurements of the GSH complexes. Dioxane solutions of complexes were used in the following concentrations: c = 2 × 10^−5 M and 3 × 10^−5 M, respectively, for C1 and C2. Measurement of UV spectra was conducted in quartz cuvettes (path length = 10.0 mm) in the range 190–400 nm (sampling interval 1 nm, scan speed 200 nm/min). All UV experiments were performed in the Laboratory of Elemental Analysis and Structural Research, Faculty of Pharmacy, Wroclaw Medical University. Baselines were corrected with pure dioxane as the reference solvent. Thin-layer chromatography (TLC) was used to monitor the progress of the reaction course and determine the purity of the synthesized compounds. Silica gel on TLC Al foils with fluorescent indicator 254 nm (Sigma-Aldrich, Merck Group, Darmstadt, Germany) was used as the stationary phase and chloroform–acetone mixtures (volume ratios 9:1, 7:3, and 1:1) as the eluent. Detection of Pt(II) compounds in the chromatograms was performed using a 0.5% acetone solution of rubeanic acid (dithiooxamide), and organic impurities were detected by observing the plates under UV light at 250 nm. […]

[6] = hypoxia, read-out: IC50 ± SD, MCF-7 (Breast), Hypoxia
[7] = normoxia, read-out: IC50 ± SD, MCF-7 (Breast), Normoxia
[8] = hypoxia, read-out: IC50 ± SD, ES-2 (Ovarian), Hypoxia
[9] = normoxia, read-out: IC50 ± SD, ES-2 (Ovarian), Normoxia

Row | Compound | IC50 [1, 6] [µM] | IC50 [1, 7] [µM] | selectivity index (SI), healthy cells vs MCF-7 ([1]; ratio of cytotoxicity towards healthy BALB/3T3 cells to cytotoxicity towards MCF-7, normoxia) | IC50 [2, 8] [µM] | IC50 [2, 9] [µM] | IC50 [3] [µM] | Rf, Eluent: Chlorofom:Acetone Ratio 9:7 Vol. [4] | Rf, Eluent: Chlorofom:Acetone Ratio 1:1 Vol. [5] | Rf, Eluent: Chlorofom:Acetone Ratio 9:1 Vol. [5]
1 | Cc1nscc1[N+](=O)[O-].Cc1nscc1[N+](=O)[O-].[Cl][Pt][Cl] [C2, trans-Dichlorobis(3-methyl-4-nitroisothiazole)platinum(II)] | 9.07 ± 5.07 | 6.16 ± 0.78 | ≈ 0.2 | 1.1 ± 0.34 | 2.14 ± 2.21 | 1.14 ± 0.28 | 0.756 | 0.833 | 0.355
2 | COC(=O)c1snc(C)c1[N+](=O)[O-].Cc1nscc1[N+](=O)[O-].[Cl][Pt][Cl] [C3, trans-Dichloro-3-methyl-4-nitroisothiazole 3-Methyl-4-nitro-5-(methoxycarbonyl)isothiazole Platinum(II)] | 7.13 ± 1.93 | 5.25 ± 1.01 | – | 4.02 ± 2.47 | 3.9 ± 2.68 | 2.94 ± 3.06 | 0.814 | 0.845 | 0.645
3 | Dichlorobis(3-methyl-4-nitroisothiazole)platinum(II) [C1] | 8.45 ± 2.25 | 4.59 ± 1.57 | – | 6.37 ± 1.69 | 7.29 ± 1.42 | 7.31 ± 0.82 | 0.442 | 0.726 | 0.054
4 | COC(=O)c1snc(C)c1[N+](=O)[O-].COC(=O)c1snc(C)c1[N+](=O)[O-].[Cl][Pt][Cl] [C4, trans-Dichlorobis(3-methyl-4-nitro-5-(methoxycarbonyl)isothiazole)platinum(II)] | 7.68 ± 4.45 | 6.94 ± 2.25 | – | 5.44 ± 1.64 | 3.89 ± 1.62 | 5.99 ± 1.28 | 0.849 | 0.863 | 0.828

From paper PMC12786457, “Studies on the Complexation of Platinum(II) by Some 4-Nitroisothiazoles and the Cytotoxic Activity of the Resulting Complexes” (Molecules, 2025)
